Results reported in patent US10441593B2, “Treatment of pain associated with dislocation of endometrium” (PREGLEM S.A., priority 2010, dated 2019).

Tested on: patients with heavy menstrual bleeding and pain
Assay: Hepatobiliary Disorders and Liver Safety analysis (Example 3)
Format: in vivo, human
Procedure: A double-blinded, randomized, study evaluating the effect of long term oral administration of 5 mg or 10 mg ulipristal in patients with heavy menstrual bleeding and pain. A Hepatobiliary Disorders and Liver Safety analysis was carried out for all patients. This summary table illustrates the increased number of subjects from the 3 treatment groups who had increased levels of AST, ALT and total bilirubin during the study.

[1] = Ulipristal 5 mg (n = 97), Week 5
[2] = Ulipristal 5 mg (n = 97), Week 9
[3] = Ulipristal 5 mg (n = 97), Week 13
[4] = Ulipristal 5 mg (n = 97), Week 17
[5] = Ulipristal 10 mg (n = 103), Week 5
[6] = Ulipristal 10 mg (n = 103), Week 9
[7] = Ulipristal 10 mg (n = 103), Week 13
[8] = Ulipristal 10 mg (n = 103), Week 17

For `CC(=O)O[C@]1(C(C)=O)CC[C@H]2[C@@H]3CCC4=CC(=O)CCC4=C3[C@@H](c3ccc(N(C)C)cc3)C[C@@]21C` [Ulipristal, 17α-acetoxy-11β-[4-N,N-dimethylamino-phenyl)-19-norpregna-4,9-diene-3,20-dione], the “treatment related changes in liver function tests” value (5 mg or 10 mg, long term oral administration) was “no signals of any treatment related changes in liver function tests”, the “ALT High not CS, number (%) of subjects” value [1] was 4 (4.1%) and the “ALT Low not CS, number (%) of subjects” value [1] was 0. For the same molecule, the “AST High not CS, number (%) of subjects” value [1] was 6 (6.2%), the “AST Low not CS, number (%) of subjects” value [1] was 0 and the “Total bilirubin High CS, number (%) of subjects” value [1] was 0. The “Total bilirubin High not CS, number (%) of subjects” value [1] was 2 (2.1%), the “Total bilirubin Low not CS, number (%) of subjects” value [1] was 0 and the “ALT High not CS, number (%) of subjects” value [2] was 0. The “ALT Low not CS, number (%) of subjects” value [2] was 0, the “AST High not CS, number (%) of subjects” value [2] was 3 (3.1%) and the “AST Low not CS, number (%) of subjects” value [2] was 0. The “Total bilirubin High not CS, number (%) of subjects” value [2] was 3 (3.1%), the “Total bilirubin Low not CS, number (%) of subjects” value [2] was 0 and the “ALT High not CS, number (%) of subjects” value [3] was 1 (1.0%). The “ALT Low not CS, number (%) of subjects” value [3] was 0, the “AST High not CS, number (%) of subjects” value [3] was 2 (2.1%) and the “AST Low not CS, number (%) of subjects” value [3] was 0. The “Total bilirubin High not CS, number (%) of subjects” value [3] was 3 (3.1%), the “Total bilirubin Low not CS, number (%) of subjects” value [3] was 0 and the “ALT High CS, number (%) of subjects” value [4] was 0. The “ALT High not CS, number (%) of subjects” value [4] was 2 (2.1%), the “ALT Low not CS, number (%) of subjects” value [4] was 0 and the “AST High not CS, number (%) of subjects” value [4] was 3 (3.1%). For the same molecule, the “AST Low not CS, number (%) of subjects” value [4] was 0, the “Total bilirubin High not CS, number (%) of subjects” value [4] was 2 (2.1%) and the “Total bilirubin Low not CS, number (%) of subjects” value [4] was 0. The “subjects with elevations of both AST and ALT above 2×ULN, but <3×ULN for consecutive samples” value (Ulipristal 5 mg group) was 1 subject, the “ALT High not CS, number (%) of subjects” value [5] was 6 (5.8%) and the “ALT Low not CS, number (%) of subjects” value [5] was 0. For the same molecule, the “AST High not CS, number (%) of subjects” value [5] was 6 (5.8%), the “AST Low not CS, number (%) of subjects” value [5] was 0 and the “Total bilirubin High CS, number (%) of subjects” value [5] was 0. For the same molecule, the “Total bilirubin High not CS, number (%) of subjects” value [5] was 3 (2.9%), the “Total bilirubin Low not CS, number (%) of subjects” value [5] was 0 and the “ALT High not CS, number (%) of subjects” value [6] was 3 (2.9%). The “ALT Low not CS, number (%) of subjects” value [6] was 0, the “AST High not CS, number (%) of subjects” value [6] was 3 (2.9%) and the “AST Low not CS, number (%) of subjects” value [6] was 0. The “Total bilirubin High not CS, number (%) of subjects” value [6] was 4 (3.9%), the “Total bilirubin Low not CS, number (%) of subjects” value [6] was 0 and the “ALT High not CS, number (%) of subjects” value [7] was 5 (4.9%). For the same molecule, the “ALT Low not CS, number (%) of subjects” value [7] was 0, the “AST High not CS, number (%) of subjects” value [7] was 4 (3.9%) and the “AST Low not CS, number (%) of subjects” value [7] was 0. The “Total bilirubin High not CS, number (%) of subjects” value [7] was 6 (5.8%), the “Total bilirubin Low not CS, number (%) of subjects” value [7] was 0 and the “ALT High CS, number (%) of subjects” value [8] was 0. For the same molecule, the “ALT High not CS, number (%) of subjects” value [8] was 4 (3.9%), the “ALT Low not CS, number (%) of subjects” value [8] was 0 and the “AST High not CS, number (%) of subjects” value [8] was 4 (3.9%). For the same molecule, the “AST Low not CS, number (%) of subjects” value [8] was 0, the “Total bilirubin High not CS, number (%) of subjects” value [8] was 2 (1.9%) and the “Total bilirubin Low not CS, number (%) of subjects” value [8] was 0. For the same molecule, the “subjects with elevations of both AST and ALT above 2×ULN, but <3×ULN for consecutive samples” value (Ulipristal 10 mg group) was 2 subjects and the “liver toxicity based on Treatment Emergent Adverse Events (TEAEs)” value (clinical studies) was “no evidence of liver toxicity”.
